Test results: the NIST ThermoML archive (doi:10.1016/j.jct.2017.11.003)
Numbers after ± are expanded uncertainties.

Key:
[1] = xn = mol fraction of the nth substance listed; settings: 100 kPa, Liquid; for speed of sound: Frequency=2 MHz, Linear variable-path acoustic interferometer; for mass density: Vibrating tube method
[2] = 100 kPa, Liquid; for speed of sound: Frequency=2 MHz, Linear variable-path acoustic interferometer; for mass density: Vibrating tube method

CCCCCCCCCO [nonan-1-ol] + Cc1ccccc1Cl
[1], x2 = 0
Settings	mass density [kg/m3]	speed of sound [m/s]
293.15 K	828 ± 4	1380.5 ± 4
298.15 K	824 ± 4	1364.7 ± 4
303.15 K	821 ± 4	1348.1 ± 4
308.15 K	818 ± 4	1330.5 ± 4

Cc1ccccc1Cl [2-chlorotoluene]
[2]
Settings	mass density [kg/m3]	speed of sound [m/s]
293.15 K	1082 ± 4	1317 ± 4
298.15 K	1077 ± 4	1299.7 ± 4
303.15 K	1073 ± 4	1283.9 ± 4
308.15 K	1068 ± 4	1265.8 ± 4

CCCCCCCCCO [nonan-1-ol]
[2]
Settings	mass density [kg/m3]	speed of sound [m/s]
293.15 K	828 ± 4	1380.5 ± 4
298.15 K	824 ± 4	1364.7 ± 4
303.15 K	821 ± 4	1348.1 ± 4
308.15 K	818 ± 4	1330.5 ± 4

ClCCCl [1,2-dichloroethane] + CCCCCCCCCO
[1], x1 = 1
Settings	mass density [kg/m3]	speed of sound [m/s]
293.15 K	1253 ± 4	1212.5 ± 3.9
298.15 K	1246 ± 4	1194.2 ± 3.9
303.15 K	1238 ± 4	1174.1 ± 3.9
308.15 K	1231 ± 4	1155.6 ± 3.9

Cc1cccc(Cl)c1 [3-chlorotoluene]
[2]
Settings	mass density [kg/m3]	speed of sound [m/s]
293.15 K	1072 ± 4	1313.8 ± 4
298.15 K	1067 ± 4	1296.5 ± 4
303.15 K	1063 ± 4	1279.5 ± 4
308.15 K	1058 ± 4	1261.2 ± 4

Cc1ccc(Cl)cc1 [4-chlorotoluene]
[2]
Settings	mass density [kg/m3]	speed of sound [m/s]
293.15 K	1069 ± 4	1306.4 ± 4
298.15 K	1065 ± 4	1288.2 ± 4
303.15 K	1060 ± 4	1270 ± 3.9
308.15 K	1054 ± 4	1252.1 ± 3.9

CCCCCCCCCO [nonan-1-ol] + Cc1ccc(Cl)cc1
[1], x2 = 0
Settings	mass density [kg/m3]	speed of sound [m/s]
293.15 K	828 ± 4	1380.5 ± 4
298.15 K	824 ± 4	1364.7 ± 4
303.15 K	821 ± 4	1348.1 ± 4
308.15 K	818 ± 4	1330.5 ± 4

CCCCCCCCCO [nonan-1-ol] + Cc1cccc(Cl)c1
[1], x2 = 0
Settings	mass density [kg/m3]	speed of sound [m/s]
293.15 K	828 ± 4	1380.5 ± 4
298.15 K	824 ± 4	1364.7 ± 4
303.15 K	821 ± 4	1348.1 ± 4
308.15 K	818 ± 4	1330.5 ± 4

ClCCCl [1,2-dichloroethane]
[2]
Settings	mass density [kg/m3]	speed of sound [m/s]
293.15 K	1253 ± 4	1212.5 ± 3.9
298.15 K	1246 ± 4	1194.2 ± 3.9
303.15 K	1238 ± 4	1174.1 ± 3.9
308.15 K	1231 ± 4	1155.6 ± 3.9
